How the values were obtained:
NO production in HAECs = NO production in HAECs by DAF-FM staining; type: cell-based, human; conditions: for NO generation: HAECs, DL-Hcy 500 μmol/L and/or D-Glu 25 mmol/L for 48 hrs
Protocol: (§1) (FIG. 6A). Images of NO. Nitric oxide (NO) production in HAECs was measured by staining intact HAECs with NO marker DAF-FM. N^G-nitro-L-arginine methyl ester (L-NAME, 100 μmol/L, Sigma #N5751) was added in the last hour as a negative control. (FIG. 6B). Quantification of NO. (FIG. 6C). eNOS activity. Human aortic endothelial cells (HAECs) were cultured in EC medium which contains 5 mmol/L D-Glucose (D-Glu), and treated with DL-homocysteine (DL-Hcy, 500 μmol/L) and/or (D-Glu, 25 mmol) without or with MDL28170 (MDL) for 48 hrs, CTsiRNA or μ-calpsiRNA for 72 hrs. L-NAME (100 μmol/L) was added in the last hour. NO was measured by staining intact HAECs with NO marker (DAF-FM, 10 μmol/L, Sigma #D2321, 30 mins.). Endothelial nitric oxide synthase (eNOS) activity was assessed by measuring of ^3H-L-arginine conversion to ^3H-citrulline in intact HAECs. n=3, *p<0.05 vs control; †p<0.05 vs DL-Hcy-treated HAECs; ‡p<0.05 vs D-Glu-treated HAECs; #p<0.05 vs DL-Hcy/D-Glu-treated HAECs. DAF-FM, 4-Amino-5-methylamino-2′,7′-difluorescein; CTsiRNA, control siRNA; HG, hyperglycemia; HHcy, hyperhomocysteinemia; μ-calpsiRNA, μ-calpain siRNA.
(§2) HAECs treated with or without DL-Hcy and/or D-Glu for 48 hrs were stained with 4-Amino-5-Methylamino-2′,7′-Difluorofluorescein (DAF-FM). To explore the role of calpain, especially μ-calpain, the DL-Hcy/D-Glu-treated HAECs were also treated with MDL28170 (MDL, 20 μmol/L) and μ-calpain siRNA, respectively. HAECs treated with L-NAME (100 μmol/L) for 1 hr before DAF-FM staining were used as negative controls. eNOS activity in HAECs was determined by measuring the conversion of ^3H-Arg to ^3H-citrulline in intact cells as previous described (Jiang et al., 2005, Arterioscl Throm Vas 25:2515-2521).

eNOS = molecular target: T1, eNOS (Homo sapiens, UniProt P29474); assay: eNOS activity in intact HAECs (3H-Arg to 3H-citrulline conversion); type: cell-based
T1 construct: endogenous in cells; host or cells: HAECs (human aortic endothelial cells)
T1 sequence (P29474 2-1203 limits assumed): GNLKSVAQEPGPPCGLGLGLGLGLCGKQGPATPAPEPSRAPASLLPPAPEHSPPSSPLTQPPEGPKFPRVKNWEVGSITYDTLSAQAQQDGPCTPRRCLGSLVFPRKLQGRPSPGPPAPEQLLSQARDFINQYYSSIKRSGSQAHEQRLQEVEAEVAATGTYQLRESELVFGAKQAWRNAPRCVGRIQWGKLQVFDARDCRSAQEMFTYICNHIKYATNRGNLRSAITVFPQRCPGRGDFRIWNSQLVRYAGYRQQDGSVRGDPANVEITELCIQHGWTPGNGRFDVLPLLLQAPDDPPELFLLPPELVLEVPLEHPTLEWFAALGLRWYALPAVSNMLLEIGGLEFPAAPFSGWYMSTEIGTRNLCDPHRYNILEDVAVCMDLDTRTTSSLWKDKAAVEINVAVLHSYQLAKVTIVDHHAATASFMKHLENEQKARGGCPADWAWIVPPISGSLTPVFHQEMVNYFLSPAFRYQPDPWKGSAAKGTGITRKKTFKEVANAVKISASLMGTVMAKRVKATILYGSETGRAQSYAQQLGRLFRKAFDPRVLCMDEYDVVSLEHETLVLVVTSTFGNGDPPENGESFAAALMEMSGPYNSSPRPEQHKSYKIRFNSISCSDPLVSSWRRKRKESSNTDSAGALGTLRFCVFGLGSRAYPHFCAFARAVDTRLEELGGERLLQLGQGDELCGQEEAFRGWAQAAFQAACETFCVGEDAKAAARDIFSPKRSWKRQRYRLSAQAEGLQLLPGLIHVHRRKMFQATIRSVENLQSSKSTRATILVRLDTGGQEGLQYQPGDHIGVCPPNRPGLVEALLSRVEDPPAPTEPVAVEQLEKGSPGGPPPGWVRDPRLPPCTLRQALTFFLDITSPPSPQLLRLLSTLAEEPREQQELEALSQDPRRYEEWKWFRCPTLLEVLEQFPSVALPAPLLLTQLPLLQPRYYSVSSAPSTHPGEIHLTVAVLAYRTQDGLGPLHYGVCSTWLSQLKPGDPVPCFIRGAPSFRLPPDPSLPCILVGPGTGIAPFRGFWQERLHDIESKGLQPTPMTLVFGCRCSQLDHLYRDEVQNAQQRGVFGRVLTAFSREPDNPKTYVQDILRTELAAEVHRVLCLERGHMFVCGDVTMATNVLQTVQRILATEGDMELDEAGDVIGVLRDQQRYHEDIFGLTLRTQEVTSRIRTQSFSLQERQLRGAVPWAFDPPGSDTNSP
Protocol: as §1, §2

[1] = HAECs, DL-Hcy 500 μmol/L and/or D-Glu 25 mmol/L for 48 hrs, relative to control

Compound	NO generation (NO production in HAECs)	eNOS activity (eNOS; [1])	NO production (NO production in HAECs; HHcy/HG (DL-Hcy/D-Glu)-treated HAECs, improved from 26%, MDL 20 μmol/L 48 hrs, siRNA 72 hrs)	eNOS activity (eNOS; HHcy/HG (DL-Hcy/D-Glu)-treated HAECs, improved from 35% (MDL) or printed 26% (siRNA), MDL 20 μmol/L 48 hrs, siRNA 72 hrs)
NC(CCS)C(=O)O (racemic) [DL-Hcy, DL-homocysteine]	78 % of the control	69%		
O=C[C@H](O)[C@@H](O)[C@H](O)[C@H](O)CO [D-Glu, D-glucose]	36 % of the control	52%		
MDL28170			86%	74%

Source: patent US20160089391A1, “Molecular Targets for Cardiovascular Disease” (Temple University-of the Commonwealth System of Higher …, priority 2014, published 2016)
